For orientation: inhibition means the change of the read-out against control, counted positive when it falls.

The text below walks through data of article PMC5501184 (Journal of medicinal chemistry, 2017).

The target in the first experiment is hDAT (Homo sapiens, UniProt Q01959). Briefly: PDSP screen: [^3H]24 binding at hDAT. As to conditions: 10 μM; [^3H]24 binding, PDSP.
Chain of hDAT (Q01959 whole entry): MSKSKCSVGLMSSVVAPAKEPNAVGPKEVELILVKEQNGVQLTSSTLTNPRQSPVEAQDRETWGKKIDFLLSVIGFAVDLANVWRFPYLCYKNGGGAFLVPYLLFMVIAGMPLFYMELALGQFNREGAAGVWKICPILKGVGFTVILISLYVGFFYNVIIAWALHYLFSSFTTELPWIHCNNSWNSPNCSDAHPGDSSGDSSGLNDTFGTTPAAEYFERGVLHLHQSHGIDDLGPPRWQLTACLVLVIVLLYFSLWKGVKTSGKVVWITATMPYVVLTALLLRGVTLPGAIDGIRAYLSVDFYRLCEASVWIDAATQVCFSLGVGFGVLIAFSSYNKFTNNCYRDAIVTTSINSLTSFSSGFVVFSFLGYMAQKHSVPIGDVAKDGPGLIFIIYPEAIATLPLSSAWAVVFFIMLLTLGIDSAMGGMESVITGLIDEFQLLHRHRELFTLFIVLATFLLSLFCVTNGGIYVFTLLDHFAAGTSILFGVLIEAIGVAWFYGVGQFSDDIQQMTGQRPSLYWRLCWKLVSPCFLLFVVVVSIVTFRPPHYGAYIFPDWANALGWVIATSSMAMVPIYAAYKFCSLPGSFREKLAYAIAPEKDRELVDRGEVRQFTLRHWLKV
As to `CNc1nc(C#Cc2ccc(Cl)s2)nc2c1ncn2[C@H]1[C@H](O)[C@H](O)[C@]2(C(=O)OC(C)C)C[C@H]12` [compound 15, Isopropyl (1S,2R,3S,4R,5S)-4-(2-((5-chlorothiophen-2-yl)ethynyl)-6-(methylamino)-9H-purin-9-yl)-2,3-dihydroxybicyclo[3.1.0]hexane-1-carboxylate], the “hDAT Binding Inhibition, % of control” value is “slightly inhibited binding”.

The same experiment, now with this note: read-out: hDAT Binding Inhibition, % of control.
Take `CCCCOC(=O)[C@@]12C[C@@H]1[C@@H](n1cnc3c(NC)nc(C#Cc4ccc(Cl)s4)nc31)[C@H](O)[C@@H]2O` [compound 16, Butyl (1S,2R,3S,4R,5S)-4-(2-((5-chlorothiophen-2-yl)ethynyl)-6-(methylamino)-9H-purin-9-yl)-2,3-dihydroxybicyclo[3.1.0]hexane-1-carboxylate]: the inhibition at 10 µM is less than -20%.

`CCCOC(=O)[C@@]12C[C@@H]1[C@@H](n1cnc3c(NC)nc(C#Cc4ccc(Cl)s4)nc31)[C@H](O)[C@@H]2O` [compound 14, n-Propyl (1S,2R,3S,4R,5S)-4-(2-((5-chlorothiophen-2-yl)ethynyl)-6-(methylamino)-9H-purin-9-yl)-2,3-dihydroxybicyclo[3.1.0]hexane-1-carboxylate]: the inhibition at 10 µM is less than -20%.

For the compound `CNc1nc(C#Cc2ccc(Cl)s2)nc2c1ncn2[C@H]1[C@H](O)[C@H](O)[C@]2(C(=O)OCCCc3ccccc3)C[C@H]12` [compound 21, 3-Phenylpropyl (1S,2R,3S,4R,5S)-4-(2-((5-chlorothiophen-2-yl)ethynyl)-6-(methylamino)-9H-purin-9-yl)-2,3-dihydroxybicyclo[3.1.0]hexane-1-carboxylate], the inhibition at 10 µM was -20 to 20%.

In the case of `CNc1nc(C#Cc2ccc(Cl)s2)nc2c1ncn2[C@H]1[C@H](O)[C@H](O)[C@]2(C(=O)OCc3ccccc3)C[C@H]12` [compound 19, Benzyl (1S,2R,3S,4R,5S)-4-(2-((5-chlorothiophen-2-yl)ethynyl)-6-(methylamino)-9H-purin-9-yl)-2,3-dihydroxybicyclo[3.1.0]hexane-1-carboxylate], the inhibition at 10 µM was -20 to 20%.

Regarding `CCOC(=O)[C@@]12C[C@@H]1[C@@H](n1cnc3c(NC)nc(C#Cc4ccc(Cl)s4)cc31)[C@H](O)[C@@H]2O` [compound 13, Ethyl (1S,2R,3S,4R,5S)-4-(6-((5-chlorothiophen-2-yl)ethynyl)-4-(methylamino)-1H-imidazo[4,5-c]pyridin-1-yl)-2,3-dihydroxybicyclo[3.1.0]hexane-1-carboxylate], the inhibition at 10 µM was less than -20%.

Consider `CNc1nc(C#Cc2ccc(Cl)s2)nc2c1ncn2[C@H]1[C@H](O)[C@H](O)[C@]2(C(=O)OCCc3ccccc3)C[C@H]12` [compound 20, 2-Phenylethyl (1S,2R,3S,4R,5S)-4-(2-((5-chlorothiophen-2-yl)ethynyl)-6-(methylamino)-9H-purin-9-yl)-2,3-dihydroxybicyclo[3.1.0]hexane-1-carboxylate], for which the inhibition at 10 µM was -20 to 20%.

For `CNc1nc(C#Cc2ccc(Cl)s2)nc2c1ncn2[C@H]1[C@H](O)[C@H](O)[C@]2(C(=O)OCCC3CCCCC3)C[C@H]12` [compound 18, 2-Cyclohexylethyl (1S,2R,3S,4R,5S)-4-(2-((5-chlorothiophen-2-yl)ethynyl)-6-(methylamino)-9H-purin-9-yl)-2,3-dihydroxybicyclo[3.1.0]hexane-1-carboxylate], the inhibition at 10 µM was -20 to 20%.

As to `CNc1nc(C#Cc2ccc(Br)s2)nc2c1ncn2[C@H]1[C@H](O)[C@H](O)[C@]2(C(=O)OC)C[C@H]12` [compound 11, Methyl (1S,2R,3S,4R,5S)-4-(2-((5-bromothiophen-2-yl)ethynyl)-6-(methylamino)-9H-purin-9-yl)-2,3-dihydroxybicyclo[3.1.0]hexane-1-carboxylate], the inhibition at 10 µM was less than -20%.

For the compound `CCOC(=O)[C@@]12C[C@@H]1[C@@H](n1cnc3c(NC)nc(C#Cc4ccc(Br)s4)nc31)[C@H](O)[C@@H]2O` [compound 12, Ethyl (1S,2R,3S,4R,5S)-4-(2-((5-bromothiophen-2-yl)ethynyl)-6-(methylamino)-9H-purin-9-yl)-2,3-dihydroxybicyclo[3.1.0]hexane-1-carboxylate], the inhibition at 10 µM was less than -20%.
